According to publication PMC7427733, “Novel xylose transporter Cs4130 expands the sugar uptake repertoire in recombinant Saccharomyces cerevisiae strains at high xylose concentrations” (Biotechnology for Biofuels, 2020):

Assays:
Gxf1 [1] = biological target: T1, Gxf1 (Sungouiella intermedia, UniProt Q2MDH1); assay: growth complementation (spot assay) and sugar consumption (HPLC) in transporter-null yeast; type: cell-based; details: S. cerevisiae EBY_Xyl1, 30 °C, xylose 5-50 g/L; uptake inferred
T1 sequence (Q2MDH1 1-547): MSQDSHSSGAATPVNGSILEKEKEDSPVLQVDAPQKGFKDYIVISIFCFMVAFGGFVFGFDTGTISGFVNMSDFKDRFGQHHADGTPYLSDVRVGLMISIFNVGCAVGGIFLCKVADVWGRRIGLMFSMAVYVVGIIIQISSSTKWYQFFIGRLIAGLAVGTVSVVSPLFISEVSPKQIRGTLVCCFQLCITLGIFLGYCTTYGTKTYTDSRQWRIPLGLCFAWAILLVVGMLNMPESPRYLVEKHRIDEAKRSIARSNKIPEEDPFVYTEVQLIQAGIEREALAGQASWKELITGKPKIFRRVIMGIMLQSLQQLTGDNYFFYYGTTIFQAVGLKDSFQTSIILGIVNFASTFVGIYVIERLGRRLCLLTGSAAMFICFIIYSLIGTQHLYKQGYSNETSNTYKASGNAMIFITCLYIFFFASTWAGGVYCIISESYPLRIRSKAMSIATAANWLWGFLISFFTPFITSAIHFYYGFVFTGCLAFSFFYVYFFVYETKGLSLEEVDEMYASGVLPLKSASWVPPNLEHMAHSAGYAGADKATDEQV

Gxf1 [2] = biological target: T1, Gxf1; assay: as above; type: cell-based; details: S. cerevisiae EBY_Xyl1, 30 °C, 20 g/L glucose spot assay; 10 g/L glucose with 10 g/L xylose in fermentation; uptake inferred

OC1OC[C@@H](O)[C@H](O)[C@H]1O (some centres unmarked) [xylose]
growth complementation (spot assay) and sugar consumption (HPLC) in transporter- (Gxf1 [1]): The facilitator Gxf1 restored growth in all xylose concentrations evaluated

OC[C@H]1OC(O)[C@H](O)[C@@H](O)[C@@H]1O (some centres unmarked) [glucose]
growth complementation (spot assay) and sugar consumption (HPLC) in transporter- (Gxf1 [2]): Cs3894 and Gxf1 were able to support better and similar patterns of growth on glucose
